In patent US20260355171A1, “INHIBITORS AND USES THEREFOR” (priority 2022, published 2026):

Tests used:
[1] = test system: primary neurons expressing SARS-CoV-2 NSP5 (AAV9-NSP5-V5); test: Effect on neurons in the presence of NSP5 (AAV9-NSP5-V5, immunofluorescence); type: cell-based, mouse; conditions: 0.4, 2, 10 or 50 μM, two days
[2] = test system: primary neurons; test: Neuronal cell death in the presence of H2O2; type: cell-based, mouse; conditions: 1 or 10 μM compound, 100 μM H2O2
Description: (§1) Primary neurons were treated with 0.4, 1, 2, 10 or 50 μM of compound 2 or compound 22 (prepared according to Example 2). NSP5 was added to primary neurons at DIV11, and compound 2 or 22 was added 48 hours later. Cells were treated with propidium iodide 48 hours after compound addition. Cells were washed with PBS and fixed with 4% PFA. Cells were then washed and stained with DAPI. Images of cells were taken with ZEISS Axioscan 7 microscope slide scanner. Cell death was determined by Image J analysis, counting the death cell (red, PI)) vs all cells (blue, DAPI).
(§2) One hour after compound addition (1 or 10 μM of compound 2 or compound 22) neurons were treated with a cytotoxic agent (100 μM N-methyl-D-aspartate (NMDA), 100 μM H2O2 or 5 μM staurosporine). One hour after treatment with the cytotoxic agent, the media was replaced with fresh media and the neurons were incubated for 24 hours. A final concentration of 1 μM propidium iodide (PI) was added into the well and incubated for 5 mins. Cells were washed with phosphate-buffered saline (PBS) and then fixed with 4% PFA. Cells were then washed and stained with DAPI, and cell death determined as described above.

[3] = test system: primary neurons; test: Cytotoxicity / neuronal cell death in the presence of NSP5 (PI/DAPI)
[4] = test system: primary neurons; test: Neuronal cell death in the presence of staurosporine; type: cell-based, mouse; conditions: 1 or 10 μM compound, 5 μM staurosporine
Description: as §1, §2

[5] = test system: primary neurons; test: Neuronal cell death in the presence of NMDA; type: cell-based, mouse; conditions: 1 or 10 μM compound, 100 μM NMDA
Description: as §1, §2

[6] = test system: primary neurons; test: Effect of compounds on neuronal cell death caused by NSP5 (Example 6); type: cell-based, mouse; conditions: 10 μM, 48 hours

Compound	Prevention of NSP5-induced neuronal death [1]	Protection from H2O2-induced neurotoxicity [2]	Reduction of neuronal cell death caused by NSP5 ([3]; 0.4, 1, 2, 10 or 50 μM, 48 hours)	Cell death caused by compound ([3]; therapeutic concentrations (nM to low μM))	Protection from staurosporine-induced neurotoxicity [4]	Protection from NMDA-induced neurotoxicity [5]	Reduction of neuronal cell death caused by NSP5 [6]
NC(=O)C1CCN(c2ncccc2CNC(=O)c2cccc3ccsc23)CC1 [Compound 2]	prevented NSP5-induced neuronal death in a dose-dependent manner	did not protect	selectively reduced neuronal cell death caused by NSP5	did not cause any cell death	did not protect	did not protect	
NC(=O)C1CCN(c2ncccc2CNC(=O)c2cc(F)cc(C(F)(F)F)c2)CC1 [Compound 35]							greatest activity
